Results: ChEMBL document CHEMBL1201862, “PubChem BioAssay data set” (2004)
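Growth conditions: 96-well plates. Treatment: test compound, 48 hours, 5 concentrations. Analysis: linear interpolation between bracketing concentrations; unreached endpoints set to highest concentration. Here, GI50 denotes the concentration required for 50% inhibition of growth.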 Calls of active or inactive are those of the source. Rule as the data show it: active = GI50 up to about 1.1 µM and inactive = higher.

How the values were obtained:
Assay in all cases: growth of human tumour cells (NCI), 48 h
786-0 = test system: 786-0
COLO 205 = test system: COLO 205
HCT-116 = test system: HCT-116
HOP-62 = test system: HOP-62
IGROV-1 = test system: IGROV-1
KM12 = test system: KM12
MCF7 = test system: MCF7
MDA-MB-435 = test system: MDA-MB-435
Malme-3M = test system: Malme-3M
NCI-H226 = test system: NCI-H226
NCI-H522 = test system: NCI-H522
OVCAR-3 = test system: OVCAR-3
SK-MEL-2 = test system: SK-MEL-2
SK-MEL-5 = test system: SK-MEL-5
SNB-75 = test system: SNB-75
T47D = test system: T47D
U-251 = test system: U-251
UACC-257 = test system: UACC-257
UO-31 = test system: UO-31
HCC 2998 = test system: HCC 2998

SMILES	GI50 (786-0)	GI50 (COLO 205)	GI50 (HCT-116)	GI50 (HOP-62)	GI50 (IGROV-1)	GI50 (KM12)	GI50 (MCF7)	GI50 (MDA-MB-435)	GI50 (Malme-3M)	GI50 (NCI-H226)	GI50 (NCI-H522)	GI50 (OVCAR-3)	GI50 (SK-MEL-2)	GI50 (SK-MEL-5)	GI50 (SNB-75)	GI50 (T47D)	GI50 (U-251)	GI50 (UACC-257)	GI50 (UO-31)	GI50 (HCC 2998)
CC1=CC2(O)OC3(CC2=C(C)C)C(C)CCC13 (centres undefined)	> 100 µM (inactive)	> 100 µM (inactive)	> 100 µM (inactive)	> 100 µM (inactive)	> 100 µM (inactive)	> 100 µM (inactive)	> 100 µM (inactive)	> 100 µM (inactive)	> 100 µM (inactive)	> 100 µM (inactive)	> 100 µM (inactive)	> 100 µM (inactive)	> 100 µM (inactive)	> 100 µM (inactive)	58.5 µM (inactive)	> 100 µM (inactive)	> 100 µM (inactive)	> 100 µM (inactive)	44.4 µM (inactive)	
Cc1c(F)c(N)c2c(=O)cc(-c3ccc(NC(=O)C(N)CCCNC(=N)N)c(F)c3)oc2c1F (centres undefined)	29 µM (inactive)	23.8 µM (inactive)	13.2 µM (inactive)	> 52.2 µM (inactive)	0.0759 µM (active)	27 µM (inactive)	0.0893 µM (active)	27.2 µM (inactive)	27.5 µM (inactive)	0.111 µM (active)	24.8 µM (inactive)		23.4 µM (inactive)	19.7 µM (inactive)		0.411 µM (active)	3.6 µM (inactive)	0.262 µM (active)	22.8 µM (inactive)	0.134 µM (active)
c1ccc(Nc2nnc(Cn3ccc4ccccc43)s2)cc1	52.7 µM (inactive)	45.1 µM (inactive)	42.7 µM (inactive)	29.9 µM (inactive)	46.9 µM (inactive)	34.5 µM (inactive)	40.3 µM (inactive)	83.2 µM (inactive)		58.3 µM (inactive)	51.8 µM (inactive)	24.5 µM (inactive)	> 100 µM (inactive)	57.4 µM (inactive)	20.9 µM (inactive)	27.7 µM (inactive)	42.4 µM (inactive)	> 100 µM (inactive)	36.4 µM (inactive)	> 100 µM (inactive)
COC(=O)CCc1ccc2c(c1)CC1(C2)Cc2ccc3c(c2C1)CCC3 (centres undefined)	69.8 µM (inactive)	80.4 µM (inactive)	> 100 µM (inactive)	> 100 µM (inactive)	> 100 µM (inactive)	39.3 µM (inactive)	59.6 µM (inactive)	38.1 µM (inactive)	> 100 µM (inactive)	> 100 µM (inactive)	59.2 µM (inactive)	> 100 µM (inactive)		34.4 µM (inactive)	> 100 µM (inactive)	18.8 µM (inactive)	> 100 µM (inactive)	> 100 µM (inactive)	32.4 µM (inactive)	52.4 µM (inactive)
C/N=c1/oc2ccccc2cc1C(N)=O	> 100 µM (inactive)	> 100 µM (inactive)	> 100 µM (inactive)	> 100 µM (inactive)	53.3 µM (inactive)	> 100 µM (inactive)	87.7 µM (inactive)	> 100 µM (inactive)		> 100 µM (inactive)	> 100 µM (inactive)	> 100 µM (inactive)	> 100 µM (inactive)	> 100 µM (inactive)	> 100 µM (inactive)	> 100 µM (inactive)	> 100 µM (inactive)	> 100 µM (inactive)	58.2 µM (inactive)	> 100 µM (inactive)
Cc1nn(C(=O)c2ccc(Cl)cc2)c2c1C(c1ccco1)SC(=N)N2 (centres undefined)	> 10 µM (inactive)	> 10 µM (inactive)	> 10 µM (inactive)	> 10 µM (inactive)	> 10 µM (inactive)	> 10 µM (inactive)	> 10 µM (inactive)	> 10 µM (inactive)		> 10 µM (inactive)	> 10 µM (inactive)	> 10 µM (inactive)	> 10 µM (inactive)	> 10 µM (inactive)	> 10 µM (inactive)	> 10 µM (inactive)	> 10 µM (inactive)	> 10 µM (inactive)		> 10 µM (inactive)
CCOC(=O)CSc1nc(-c2ccc(Cl)cc2)c(C#N)c(=O)[nH]1	> 100 µM (inactive)	> 100 µM (inactive)	72.9 µM (inactive)	> 100 µM (inactive)	> 100 µM (inactive)	> 100 µM (inactive)	99.5 µM (inactive)	> 100 µM (inactive)		82.4 µM (inactive)	58.5 µM (inactive)	> 100 µM (inactive)	> 100 µM (inactive)	> 100 µM (inactive)	63.7 µM (inactive)	85.1 µM (inactive)	> 100 µM (inactive)	> 100 µM (inactive)	77.3 µM (inactive)	76 µM (inactive)
CCOC(=O)C1C(=O)C=C(c2cc(C)ccc2O)CC1c1cccc(Br)c1 (centres undefined)	17.6 µM (inactive)	16.2 µM (inactive)	18 µM (inactive)	46.7 µM (inactive)	12.6 µM (inactive)	13.2 µM (inactive)	14.9 µM (inactive)	2.39 µM (inactive)	16.3 µM (inactive)	15.7 µM (inactive)	14.7 µM (inactive)	21.5 µM (inactive)	18.5 µM (inactive)	14.2 µM (inactive)		18.6 µM (inactive)	16.1 µM (inactive)	15.7 µM (inactive)	20.9 µM (inactive)	17.9 µM (inactive)
O=C1C(Cl)=C(N(C(=O)c2ccccc2)C(=O)c2ccccc2)C(=O)c2ccccc21	14.5 µM (inactive)	16.1 µM (inactive)	4.12 µM (inactive)	49 µM (inactive)	19.4 µM (inactive)	3.38 µM (inactive)	10.1 µM (inactive)	12.6 µM (inactive)		> 100 µM (inactive)	5.7 µM (inactive)	10.9 µM (inactive)	11.4 µM (inactive)	3.6 µM (inactive)	3.68 µM (inactive)	4.68 µM (inactive)	5.98 µM (inactive)	14.9 µM (inactive)	3.39 µM (inactive)	12.1 µM (inactive)
[N-]=[N+]=NC1CC(n2ccc(N)nc2=O)OC1COP(=O)(O)OP(=O)(O)OP(=O)(O)O (centres undefined)	> 100 µM (inactive)	> 100 µM (inactive)	> 100 µM (inactive)	> 100 µM (inactive)	> 100 µM (inactive)		> 100 µM (inactive)	> 100 µM (inactive)	> 100 µM (inactive)	> 100 µM (inactive)	> 100 µM (inactive)	> 100 µM (inactive)		> 100 µM (inactive)	> 100 µM (inactive)	> 100 µM (inactive)	> 100 µM (inactive)	> 100 µM (inactive)	> 100 µM (inactive)	> 100 µM (inactive)
C/C(=N\NC(N)=S)c1ccccn1.OB(O)c1ccccc1	3.73 µM (inactive)	3.85 µM (inactive)	3.5 µM (inactive)	5.5 µM (inactive)	4.46 µM (inactive)	7.45 µM (inactive)	4.55 µM (inactive)	7.55 µM (inactive)	8.63 µM (inactive)	6.12 µM (inactive)	1.8 µM (inactive)	2.62 µM (inactive)		4.63 µM (inactive)	12.9 µM (inactive)	3.8 µM (inactive)	3.28 µM (inactive)	4.47 µM (inactive)	2.39 µM (inactive)	4.36 µM (inactive)
Nc1nc(Cl)c2nnn(CC3CCC(CO)C3)c2n1 (centres undefined)	> 100 µM (inactive)	> 100 µM (inactive)	> 100 µM (inactive)	> 100 µM (inactive)		> 100 µM (inactive)	> 100 µM (inactive)	> 100 µM (inactive)		> 100 µM (inactive)		> 100 µM (inactive)	> 100 µM (inactive)	> 100 µM (inactive)	> 100 µM (inactive)	> 100 µM (inactive)	> 100 µM (inactive)	> 100 µM (inactive)	> 100 µM (inactive)	> 100 µM (inactive)
CCCCCCCCCCCCCCCCCCNc1ccn(C2OC(COP(=O)(O)OCC3CCC(n4cnc5c(=O)[nH]cnc54)O3)C(O)C2O)c(=O)n1 (centres undefined)	43.5 µM (inactive)	> 100 µM (inactive)	> 100 µM (inactive)	> 100 µM (inactive)	84.1 µM (inactive)	> 100 µM (inactive)	> 100 µM (inactive)	> 100 µM (inactive)	> 100 µM (inactive)	> 100 µM (inactive)	51.5 µM (inactive)	> 100 µM (inactive)	> 100 µM (inactive)	> 100 µM (inactive)	> 100 µM (inactive)	95.5 µM (inactive)	> 100 µM (inactive)	> 100 µM (inactive)	> 100 µM (inactive)	
O=C(CCl)Nc1cc(Cl)c(Cl)cc1Cl	1.51 µM (inactive)	1.85 µM (inactive)	1.59 µM (inactive)	2.15 µM (inactive)	1.81 µM (inactive)	0.307 µM (active)	2.07 µM (inactive)	1.38 µM (inactive)	1.41 µM (inactive)	1.01 µM (active)	0.505 µM (active)	1.76 µM (inactive)	1.64 µM (inactive)	1.78 µM (inactive)		2.29 µM (inactive)	2.01 µM (inactive)	1.84 µM (inactive)		4.84 µM (inactive)
NCCNCC(O)CO (centres undefined)	> 100 µM (inactive)	> 100 µM (inactive)	> 100 µM (inactive)	> 100 µM (inactive)	> 100 µM (inactive)	> 100 µM (inactive)	> 100 µM (inactive)	> 100 µM (inactive)	> 100 µM (inactive)	> 100 µM (inactive)	> 100 µM (inactive)	> 100 µM (inactive)	> 100 µM (inactive)	> 100 µM (inactive)	> 100 µM (inactive)	> 100 µM (inactive)	> 100 µM (inactive)	> 100 µM (inactive)	> 100 µM (inactive)	
